Results taken from patent publication EP0261362A2, “Ubidecarenone as a keloid remedy” (Eisai Co., Ltd., priority 1986, dated 1988).

Columns and labels:
Format in all cases: in vivo
skin [1] = experiment: Primary skin irritation test; conditions: Concn. 1%, solvent Squalane
Description: (§1) The safety of percutaneous administration of ubidecarenone is high, and skin irritation due to ubidecarenone is minor. For example, the results of primary skin irritation, accumulative irritation, eyelid irritation, phototoxis, sensitization, photosensitization, and patch tests are as shown in Table l.

skin [2] = experiment: Accumulative skin irritation test; conditions: Concn. 1%, solvent Squalane
Description: as §1

eyelid = experiment: Eyelid irritation test; conditions: Concn. 1%, solvent Squalane
Description: as §1

skin [3] = experiment: Phototoxis test; conditions: Concn. 1% and 10%, solvent Squalane
Description: as §1

skin [4] = experiment: Sensitization test (Adjuvant & Patch method); conditions: Induction: 5% acetone
Description: as §1

skin [5] = experiment: Photosensitization test (Adjuvant & Strip method); conditions: Induction: 10% acetone
Description: as §1

skin [6] = experiment: Patch test; conditions: Concn. 1%, solvent Squalane
Description: as §1

## COC1=C(OC)C(=O)C(C/C=C(\C)CC/C=C(\C)CC/C=C(\C)CC/C=C(\C)CC/C=C(\C)CC/C=C(\C)CC/C=C(\C)CC/C=C(\C)CC/C=C(\C)CCC=C(C)C)=C(C)C1=O [ubidecarenone]
Skin [1]
  Primary skin irritation, conclusion: lowly irritative
  Primary skin irritation, result: 0.1
Skin [2]
  Accumulative skin irritation, result: 0.3
eyelid
  Eyelid irritation, conclusion: lowly irritative
Skin [3]
  Phototoxis, conclusion: lowly phototoxic
Skin [4]; challenge 1% in acetone
  Sensitization Challenge, result: 0/10
Skin [4]; challenge 5% and 1% in acetone
  Sensitization Challenge, conclusion: lowly sensitized
Skin [4]; challenge 5% in acetone
  Sensitization Challenge, result: 0/10
Skin [5]; challenge 0.5 in acetone
  Photosensitivization Challenge, result: 0/5
Skin [5]; challenge 1 in acetone
  Photosensitivization Challenge, result: 0/5
Skin [5]; challenge 2 in acetone
  Photosensitivization Challenge, result: 0/5
Skin [5]; challenge 5 in acetone
  Photosensitivization Challenge, result: 0/5
Skin [5]; challenge 10% in acetone
  Photosensitivization Challenge, result: 0/5
Skin [5]; challenge 10% to 0.5 in acetone
  Photosensitivization Challenge, conclusion: lowly photosensitized
Skin [6]
  Patch test, conclusion: lowly irritative
  Patch test, result: 0/54
